The test concerns the target ATP6V0D1 (V-ATPase V0 domain subunit d1) (Homo sapiens, UniProt P61421). Briefly: SPR. It counts as binding.

SMILES strings stand for the structures.

Chain of ATP6V0D1 (V-ATPase V0 domain subunit d1) (P61421 whole entry, the tested form may be a part): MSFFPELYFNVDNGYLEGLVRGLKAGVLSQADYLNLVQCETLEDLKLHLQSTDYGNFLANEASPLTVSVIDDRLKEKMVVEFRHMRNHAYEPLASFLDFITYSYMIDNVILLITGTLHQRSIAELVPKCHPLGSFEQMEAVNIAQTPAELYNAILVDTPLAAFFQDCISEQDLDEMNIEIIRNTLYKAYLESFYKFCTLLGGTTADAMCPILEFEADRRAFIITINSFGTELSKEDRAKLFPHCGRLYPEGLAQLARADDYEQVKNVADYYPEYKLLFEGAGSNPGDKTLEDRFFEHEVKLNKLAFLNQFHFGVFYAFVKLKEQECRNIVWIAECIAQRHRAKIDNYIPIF

By Kd is commonly meant the constant that tells how readily two partners part at equilibrium. A lower Kd goes with a tighter complex. For the molecule `COc1cc2c(c(OC)c1OC)-c1c(cc(OC)c(OC)c1OC)C[C@](C)(O)[C@@H](C)C2` [SolA, Schisandrol A], the Kd was 2000 nM.

These data come from article PMC9532558 (Acta Pharmaceutica Sinica. B, 2022).
